# Calls of active or inactive are those of the source. No cut-off for these calls is given here.
# Experiments:
# [1] = Inhibition of alpha-glucosidase (unknown origin); parameters: species or system Homo sapiens
# Rattus norvegicus [2] = species: Rattus norvegicus; assay: Inhibition of alpha-glucosidase in rat everted intestinal sleeves assessed as reduction in glucose concentration outside of the intestinal sleeves at 0.173 mM measured after 5 to 90 mins; format: tissue-based; details: Intestine, time min 5-90
# Homo sapiens [3] = species: Homo sapiens; assay: Binding affinity to alpha-glucosidase (unknown origin) assessed as quenching constant at 310 K
# Homo sapiens [4] = species: Homo sapiens; assay: Non-competitive inhibition of alpha-glucosidase (unknown origin) assessed as decrease in Vmax with constant Km at 0.0 to 0.92 uM using p-NPG as substrate by Lineweaver-Burk plot analysis; details: dose microM 0.0-0.92
# Homo sapiens [5] = species: Homo sapiens; assay: Binding affinity to alpha-glucosidase (unknown origin) assessed as decrease in fluorescence intensity of Tyr residue without shift in maximum emission wavelength at 0.16 to 1.66 uM by fluorescence based Synchronous fluorescence spectroscopy; details: dose microM 0.16-1.66
# Homo sapiens [6] = species: Homo sapiens; assay: Binding affinity to alpha-glucosidase (unknown origin) assessed as Stern-Volmer quenching constant at 304 K
# [7] = Binding affinity to alpha-glcosidase (unknown origin) using p-NPG as substrate; parameters: species or system Homo sapiens
# Homo sapiens [8] = species: Homo sapiens; assay: Binding affinity to alpha-glucosidase (unknown origin) assessed as decrease in fluorescence intensity at 0.16-1.66 uM by fluorescence based Synchronous fluorescence spectroscopy; details: dose microM 0.16-1.66
# Homo sapiens [9] = species: Homo sapiens; assay: Binding affinity to alpha-glucosidase (unknown origin) assessed as enzyme complexation with compound by measuring mean height of enzyme at 2.5 uM by atomic force microscopy (reference value: 0.87 nm)
# Homo sapiens [10] = species: Homo sapiens; assay: Binding affinity to alpha-glucosidase (unknown origin) assessed as quenching constant at 304 K
# Homo sapiens [11] = species: Homo sapiens; assay: Binding affinity to alpha-glucosidase (unknown origin) assessed as binding constant at 304 K
# Homo sapiens [12] = species: Homo sapiens; assay: Binding affinity to alpha-glucosidase (unknown origin) assessed as change in gibbs free energy at 310 K by Van't Hoff equation analysis
# Rattus norvegicus [13] = species: Rattus norvegicus; assay: Inhibition of alpha-glucosidase in rat everted intestinal sleeves assessed as reduction in glucose concentration within intestinal sleeves at 0.173 mM measured for 5 to 90 mins; format: tissue-based; details: Intestine, time min 5-90
# Homo sapiens [14] = species: Homo sapiens; assay: Binding affinity to alpha-glucosidase (unknown origin) assessed as hydrogen bonding interactions by measuring change in entropy at 304 K by Van't Hoff equation analysis
# Homo sapiens [15] = species: Homo sapiens; assay: Binding affinity to alpha-glucosidase (unknown origin) assessed as hydrophobic interactions by measuring change in enthalpy at 304 K by Van't Hoff equation analysis
# Homo sapiens [16] = species: Homo sapiens; assay: Binding affinity to alpha-glucosidase (unknown origin) assessed as change in the microenvironment of tryptophan residue by measuring blue shift at 0.16 to 1.66 uM by fluorescence based Synchronous fluorescence spectroscopy; details: dose microM 0.16-1.66
# Homo sapiens [17] = species: Homo sapiens; assay: Binding affinity to alpha-glucosidase (unknown origin) assessed as binding constant at 310 K
# Homo sapiens [18] = species: Homo sapiens; assay: Binding affinity to alpha-glucosidase (unknown origin) assessed as change in gibbs free energy at 298 K by Van't Hoff equation analysis
# Homo sapiens [19] = species: Homo sapiens; assay: Binding affinity to alpha-glucosidase (unknown origin) assessed as change in gibbs free energy at 304 K by Van't Hoff equation analysis
# Homo sapiens [20] = species: Homo sapiens; assay: Binding affinity to alpha-glucosidase (unknown origin) assessed as fluorescence quenching at 0.16 to 1.83 uM by fluorescence spectral analysis; details: dose microM 0.16-1.83
# Homo sapiens [21] = species: Homo sapiens; assay: Binding affinity to alpha-glucosidase (unknown origin) assessed as binding constant at 298 K
# Rattus norvegicus [22] = species: Rattus norvegicus; assay: Inhibition of alpha-glucosidase in rat everted intestinal sleeves assessed as reduction in blood glucose AUC (0-90) outside of the intestinal sleeves at 0.173 mM; format: tissue-based; details: Intestine, time min 0-90
# Homo sapiens [23] = species: Homo sapiens; assay: Binding affinity to alpha-glucosidase (unknown origin) assessed as Stern-Volmer quenching constant at 310 K
# Mus musculus [24] = species: Mus musculus; assay: Hypoglycemic activity in Kunming mouse assessed as reduction in maltose-induced blood glucose AUC (0 to 120 mins) by maltose loading test; format: functional, organism-based; details: time min 0-120
# Mus musculus [25] = species: Mus musculus; assay: Hypoglycemic activity in Kunming mouse assessed as reduction in maltose-induced postprandial blood glucose level measured after 15 to 120 mins by maltose loading test; format: functional, organism-based; details: time min 15-120
# Homo sapiens [26] = species: Homo sapiens; assay: Binding affinity to alpha-glucosidase (unknown origin) assessed as quenching constant at 298 K
# Homo sapiens [27] = species: Homo sapiens; assay: Binding affinity to alpha-glucosidase (unknown origin) assessed as enzyme complexation with compound at 2.5 uM by measuring mean width of enzyme by atomic force microscopy (reference value: 28.35 nm)
# Homo sapiens [28] = species: Homo sapiens; assay: Binding affinity to alpha-glucosidase (unknown origin) assessed as Stern-Volmer quenching constant at 298 K
# Rattus norvegicus [29] = species: Rattus norvegicus; assay: Inhibition of alpha-glucosidase in rat everted intestinal sleeves assessed as reduction in blood glucose AUC (0-90) within intestinal sleeves at 0.173 mM; format: tissue-based; details: Intestine, time min 0-90
# Homo sapiens [30] = species: Homo sapiens; assay: Binding affinity to alpha-glucosidase (unknown origin) assessed as destabilization of enzyme conformation by measuring induction of protein aggregation at 2.5 uM by atomic force microscopy
# Homo sapiens [31] = species: Homo sapiens; assay: Binding affinity to alpha-glucosidase (unknown origin) assessed as change in the microenvironment of tyrosine residue by measuring red shift at 0.16 to 1.66 uM by fluorescence based Synchronous fluorescence spectroscopy; details: dose microM 0.16-1.66
smiles,measurement,setting,value
CCC(=O)c1cc(C)c(O)cc1O,IC50,[1],Not Active
Cc1cc(C(=O)C(C)C)c(O)cc1OC(=O)CI,IC50,[1]; read-out: IC50,4.27 µM
Cc1cc(C(=O)C(C)C)c(O)cc1OC(=O)c1ccc(Cl)cc1,IC50,[1]; read-out: IC50,10.9 µM
CCCCCCC(=O)Oc1cc(O)c(C(=O)C(C)C)cc1C,IC50,[1]; read-out: IC50,5.93 µM
Cc1cc(C(=O)C(C)C)c(O)c(Br)c1OC(=O)c1ccc(F)cc1,IC50,[1]; read-out: IC50,15.7 µM
CC(C)C(=O)c1ccc(OC(=O)CBr)cc1O,IC50,[1]; read-out: IC50,35.8 µM
CC(=O)Oc1ccc(C(=O)C(C)C)c(O)c1,IC50,[1],Not Active
COc1ccc(C(=O)Oc2c(C)cc(C(=O)C(C)C)c(O)c2Br)cc1,IC50,[1]; read-out: IC50,27.6 µM
Cc1cc(C(=O)C(C)C)c(O)c(Br)c1O,IC50,[1]; read-out: IC50,21 µM
CCCCCC(=O)c1cc(C)c(O)cc1O,IC50,[1]; read-out: IC50,66.5 µM
CCCCC(=O)Oc1cc(O)c(C(=O)C(C)C)cc1C,IC50,[1]; read-out: IC50,24.7 µM
Cc1cc(C(=O)C(C)C)c(O)cc1OC(=O)CCl,IC50,[1]; read-out: IC50,140 µM
CCCCC(=O)c1ccc(OC(=O)CI)cc1O,IC50,[1],Not Active
Cc1cc(C(=O)C(C)C)c(O)cc1OC(=O)c1ccc(Br)cc1,IC50,[1]; read-out: IC50,26 µM
Cc1cc(C(=O)C(C)C)c(O)cc1OC(=O)c1ccccc1Cl,IC50,[1]; read-out: IC50,27.4 µM
CCC(=O)c1cc(C)c(OC(=O)CI)cc1O,IC50,[1]; read-out: IC50,6.22 µM
CCCCC(=O)c1cc(C)c(OC(=O)CI)cc1O,IC50,[1]; read-out: IC50,5.58 µM
CCCCCCCC(=O)c1cc(C)c(O)cc1O,IC50,[1]; read-out: IC50,35.6 µM
CCCCCC(=O)c1cc(C)c(OC(=O)CI)cc1O,IC50,[1]; read-out: IC50,3.9 µM
CCCCC(=O)c1ccc(O)cc1O,IC50,[1],Not Active
CCC(=O)Oc1cc(O)c(C(=O)C(C)C)cc1C,IC50,[1],Not Active
CC(C)C(=O)c1cc(Br)c(OC(=O)CI)cc1O,IC50,[1]; read-out: IC50,11.3 µM
CCCCCCC(=O)c1cc(C)c(O)cc1O,IC50,[1]; read-out: IC50,40.9 µM
CC(C)C(=O)c1cc(Br)c(OC(=O)CCl)cc1O,IC50,[1]; read-out: IC50,143 µM
Cc1cc(C(=O)C(C)C)c(O)c(Br)c1OC(=O)C(C)(C)C,IC50,[1]; read-out: IC50,1.86 µM
Cc1cc(C(=O)C(C)C)c(O)c(Br)c1OC(=O)c1ccc(I)cc1,IC50,[1]; read-out: IC50,25.4 µM
Cc1cc(C(=O)C(C)C)c(O)c(Br)c1OC(=O)CCl,IC50,[1]; read-out: IC50,30.9 µM
Cc1cc(C(=O)C(C)C)c(O)cc1OC(=O)C(C)(C)C,IC50,[1]; read-out: IC50,16 µM
CC(=O)Oc1cc(O)c(C(=O)C(C)C)cc1Br,IC50,[1],Not Active
Cc1cc(C(=O)C(C)C)c(O)cc1OC(=O)CBr,IC50,[1]; read-out: IC50,14.9 µM
CC(=O)Oc1cc(O)c(C(=O)C(C)C)cc1C,IC50,[1],Not Active
CC(C)C(=O)c1cc(Br)c(O)cc1O,IC50,[1]; read-out: IC50,29 µM
CC(=O)Oc1c(C)cc(C(=O)C(C)C)c(O)c1Br,IC50,[1]; read-out: IC50,121 µM
CCCCCC(=O)c1ccc(OC(=O)CI)cc1O,IC50,[1]; read-out: IC50,8.97 µM
Cc1cc(C(=O)C(C)C)c(O)cc1OC(=O)Cc1ccccc1,IC50,[1]; read-out: IC50,25.4 µM
CC(C)C(=O)c1ccc(OC(=O)C(C)(C)C)cc1O,IC50,[1]; read-out: IC50,33.4 µM
CCC(=O)c1ccc(O)cc1O,IC50,[1],Not Active
Cc1ccc(C(=O)Oc2c(C)cc(C(=O)C(C)C)c(O)c2Br)cc1,IC50,[1]; read-out: IC50,25.2 µM
Cc1cc(C(=O)C(C)C)c(O)cc1OC(=O)c1cccc(Cl)c1,IC50,[1]; read-out: IC50,28.1 µM
CCCCCCC(=O)c1cc(C)c(OC(=O)CI)cc1O,IC50,[1]; read-out: IC50,1.77 µM
Cc1cc(C(=O)C(C)C)c(O)cc1OC(=O)c1ccccc1,IC50,[1]; read-out: IC50,14.6 µM
CC(C)C(=O)c1ccc(OC(=O)CCl)cc1O,IC50,[1],Not Active
CCCC(=O)Oc1cc(O)c(C(=O)C(C)C)cc1C,IC50,[1]; read-out: IC50,43.2 µM
CCCCCCCC(=O)c1ccc(O)cc1O,IC50,[1]; read-out: IC50,74.6 µM
O=c1c(-c2ccc(O)cc2)coc2cc(O)cc(O)c12 [GENISTEIN],IC50,[1]; read-out: IC50,7.21 µM
Cc1cc(C(=O)C(C)C)c(O)cc1O,IC50,[1]; read-out: IC50,23.7 µM
Cc1cc(C(=O)C(C)C)c(O)c(Br)c1OC(=O)CI,inhibition,Rattus norvegicus [2],Active
same,IC50,[1]; read-out: IC50,0.57 µM
same,Kq,Homo sapiens [3],2.24 10^12L/mol/s
same,inhibition,Homo sapiens [4],Active
same,Activity,Homo sapiens [5],inactive
same,KSV,Homo sapiens [6],2.59 10^4L/mol
same,Ki,[7],0.65 µM
same,Activity,Homo sapiens [8],Active
same,Activity,Homo sapiens [9],3.97 nm
same,Kq,Homo sapiens [10],2.59 10^12L/mol/s
same,Ka,Homo sapiens [11],1.45 10^4L/mol
same,deltaG,Homo sapiens [12],-8.89 kcal/mol
same,inhibition,Rattus norvegicus [13],Active
same,deltaS,Homo sapiens [14],57 J/mol/K
same,deltaH,Homo sapiens [15],-4.67 kcal/mol
same,Activity,Homo sapiens [16],Active
same,Ka,Homo sapiens [17],1.36 10^4L/mol
same,deltaG,Homo sapiens [18],-8.73 kcal/mol
same,deltaG,Homo sapiens [19],-8.81 kcal/mol
same,Activity,Homo sapiens [20],Active
same,Ka,Homo sapiens [21],1.56 10^4L/mol
same,inhibition,Rattus norvegicus [22],Active
same,KSV,Homo sapiens [23],2.24 10^4L/mol
same,Activity,Mus musculus [24],Active
same,Activity,Mus musculus [25],Dose-dependent effect
same,Kq,Homo sapiens [26],2.98 10^12L/mol/s
same,Activity,Homo sapiens [27],29.6 nm
same,KSV,Homo sapiens [28],2.98 10^4L/mol
same,inhibition,Rattus norvegicus [29],Active
same,Activity,Homo sapiens [30],Active
same,Activity,Homo sapiens [31],Active
Cc1cc(C(=O)C(C)C)c(O)c(Br)c1OC(=O)c1ccc([N+](=O)[O-])cc1,IC50,[1]; read-out: IC50,20.6 µM
CC(C)C(=O)Oc1ccc(C(=O)C(C)C)c(O)c1,IC50,[1]; read-out: IC50,72.5 µM
CCCCCCCCCC(=O)Oc1cc(O)c(C(=O)C(C)C)cc1C,IC50,[1]; read-out: IC50,8.45 µM
Cc1cc(C(=O)C(C)C)c(O)c(Br)c1OC(=O)c1ccc(Cl)cc1,IC50,[1]; read-out: IC50,24.9 µM
CCCCCCC(=O)c1ccc(O)cc1O,IC50,[1]; read-out: IC50,81.9 µM
Cc1cc(C(=O)C(C)C)c(O)c(Br)c1OC(=O)CBr,IC50,[1]; read-out: IC50,11.9 µM
CCC(=O)c1ccc(OC(=O)CI)cc1O,IC50,[1],Not Active
CC(C)C(=O)c1cc(Br)c(OC(=O)CBr)cc1O,IC50,[1]; read-out: IC50,15 µM
CCCCC(=O)c1cc(C)c(O)cc1O,IC50,[1],Not Active
CCCCCC(=O)c1ccc(O)cc1O,IC50,[1]; read-out: IC50,107 µM
CC(C)C(=O)c1ccc(OC(=O)CI)cc1O,IC50,[1]; read-out: IC50,14.4 µM
